# Organism: Rattus norvegicus
# Assay: Open TG-GATES - Regimen: Daily Repeat
# Assay type: toxicity, organism-based, Sprague-Dawley
# Parameters: regimen Daily Repeat, gender Male, age 6 weeks
# Conditions: in vivo, po, 3 mg/kg, route gavage, dose level Low; for APTT / Bas / Eos / Fbg / Hb / Ht / Lym / MCH / MCHC / MCV / Mono / Neu / PT / Plat / RBC / Ret / WBC: tissue Blood; for KIDNEY_L / KIDNEY_R / KIDNEY_TOTAL: tissue Kidney; for LIVER: tissue Liver; for A/G / ALP / ALT / AST / BUN / CRE / Ca / Cl / DBIL / GLC / IP / K / LDH / Na / PL / RALB / TBIL / TC / TG / TP / gamma-GTP: tissue Plasma
smiles,measurement,setting,value
Nc1c2c(nc3ccccc13)CCCC2 [TACRINE],TERMINAL_BW,"72 h, time 3 day",218.9 g
same,APTT,"72 h, time 3 day",21 s
same,Bas,"72 h, time 3 day",0%
same,Eos,"72 h, time 3 day",0.8%
same,Fbg,"72 h, time 3 day",309.2 mg/dL
same,Hb,"72 h, time 3 day",13.8 g/dL
same,Ht,"72 h, time 3 day",39.3%
same,Lym,"72 h, time 3 day",80.2%
same,MCH,"72 h, time 3 day",21 pg
same,MCHC,"72 h, time 3 day",35%
same,MCV,"72 h, time 3 day",60.1 fL
same,Mono,"72 h, time 3 day",2.8%
same,Neu,"72 h, time 3 day",15.2%
same,PT,"72 h, time 3 day",16.1 s
same,Plat,"72 h, time 3 day",115.7 x10_4/uL
same,RBC,"72 h, time 3 day",655.6 x10_4/ul
same,Ret,"72 h, time 3 day",5.8%
same,WBC,"72 h, time 3 day",128.8 x10_2/uL
same,KIDNEY_L,"72 h, time 3 day",0.9 g
same,KIDNEY_R,"72 h, time 3 day",1 g
same,KIDNEY_TOTAL,"72 h, time 3 day",1.9 g
same,LIVER,"72 h, time 3 day",10 g
same,A/G,"72 h, time 3 day",1.3
same,ALP,"72 h, time 3 day",1457.8 IU/L
same,ALT,"72 h, time 3 day",48.6 IU/L
same,AST,"72 h, time 3 day",78.4 IU/L
same,BUN,"72 h, time 3 day",17.8 mg/dL
same,CRE,"72 h, time 3 day",0.2 mg/dL
same,Ca,"72 h, time 3 day",10.8 mg/dL
same,Cl,"72 h, time 3 day",106.8 meq/L
same,DBIL,"72 h, time 3 day",0.004 mg/dL
same,GLC,"72 h, time 3 day",190.2 mg/dL
same,IP,"72 h, time 3 day",7.2 mg/dL
same,K,"72 h, time 3 day",4.2 meq/L
same,LDH,"72 h, time 3 day",313 IU/L
same,Na,"72 h, time 3 day",142 meq/L
same,PL,"72 h, time 3 day",168 mg/dL
same,RALB,"72 h, time 3 day",3.2 g/dL
same,TBIL,"72 h, time 3 day",0.016 mg/dL
same,TC,"72 h, time 3 day",85.6 mg/dL
same,TG,"72 h, time 3 day",111 mg/dL
same,TP,"72 h, time 3 day",5.6 g/dL
same,gamma-GTP,"72 h, time 3 day",1 IU/L
same,TERMINAL_BW,"[…], time 7 day",247.7 g
same,TERMINAL_BW,"[…], time 14 day",303.9 g
same,TERMINAL_BW,"[…], time 28 day",351.6 g
same,APTT,"[…], time 7 day",21.5 s
same,Bas,"[…], time 7 day",0%
same,Eos,"[…], time 7 day",1%
same,Fbg,"[…], time 7 day",301 mg/dL
same,Hb,"[…], time 7 day",13.7 g/dL
same,Ht,"[…], time 7 day",38.9%
same,Lym,"[…], time 7 day",81.6%
same,MCH,"[…], time 7 day",21.3 pg
same,MCHC,"[…], time 7 day",35.3%
same,MCV,"[…], time 7 day",60.3 fL
same,Mono,"[…], time 7 day",2.2%
same,Neu,"[…], time 7 day",14.6%
same,PT,"[…], time 7 day",16.1 s
same,Plat,"[…], time 7 day",112.9 x10_4/uL
same,RBC,"[…], time 7 day",645.2 x10_4/ul
same,Ret,"[…], time 7 day",6%
same,WBC,"[…], time 7 day",119.7 x10_2/uL
same,APTT,"[…], time 14 day",23.3 s
same,Bas,"[…], time 14 day",0%
same,Eos,"[…], time 14 day",1%
same,Fbg,"[…], time 14 day",309.4 mg/dL
same,Hb,"[…], time 14 day",14.5 g/dL
same,Ht,"[…], time 14 day",41.1%
same,Lym,"[…], time 14 day",79.8%
same,MCH,"[…], time 14 day",21.1 pg
same,MCHC,"[…], time 14 day",35.4%
same,MCV,"[…], time 14 day",59.5 fL
same,Mono,"[…], time 14 day",1.4%
same,Neu,"[…], time 14 day",17.4%
same,PT,"[…], time 14 day",15.5 s
same,Plat,"[…], time 14 day",132.9 x10_4/uL
same,RBC,"[…], time 14 day",690.8 x10_4/ul
same,Ret,"[…], time 14 day",4.6%
same,WBC,"[…], time 14 day",104.3 x10_2/uL
same,APTT,"[…], time 28 day",23.8 s
same,Bas,"[…], time 28 day",0%
same,Eos,"[…], time 28 day",1%
same,Fbg,"[…], time 28 day",294.8 mg/dL
same,Hb,"[…], time 28 day",15.6 g/dL
same,Ht,"[…], time 28 day",42.8%
same,Lym,"[…], time 28 day",84%
same,MCH,"[…], time 28 day",20.1 pg
same,MCHC,"[…], time 28 day",36.5%
same,MCV,"[…], time 28 day",55.2 fL
same,Mono,"[…], time 28 day",1.6%
same,Neu,"[…], time 28 day",12.6%
same,PT,"[…], time 28 day",16.3 s
same,Plat,"[…], time 28 day",99.5 x10_4/uL
same,RBC,"[…], time 28 day",776.2 x10_4/ul
same,Ret,"[…], time 28 day",2.5%
same,WBC,"[…], time 28 day",118.7 x10_2/uL
same,KIDNEY_L,"[…], time 7 day",1 g
same,KIDNEY_R,"[…], time 7 day",1.1 g
same,KIDNEY_TOTAL,"[…], time 7 day",2.1 g
same,KIDNEY_L,"[…], time 14 day",1.2 g
same,KIDNEY_R,"[…], time 14 day",1.2 g
same,KIDNEY_TOTAL,"[…], time 14 day",2.4 g
same,KIDNEY_L,"[…], time 28 day",1.3 g
same,KIDNEY_R,"[…], time 28 day",1.2 g
same,KIDNEY_TOTAL,"[…], time 28 day",2.5 g
same,LIVER,"[…], time 7 day",11 g
same,LIVER,"[…], time 14 day",13.3 g
same,LIVER,"[…], time 28 day",13.9 g
same,A/G,"[…], time 7 day",1.2
same,ALP,"[…], time 7 day",1691 IU/L
same,ALT,"[…], time 7 day",37.2 IU/L
same,AST,"[…], time 7 day",68.2 IU/L
same,BUN,"[…], time 7 day",18.6 mg/dL
same,CRE,"[…], time 7 day",0.2 mg/dL
same,Ca,"[…], time 7 day",10.7 mg/dL
same,Cl,"[…], time 7 day",108 meq/L
same,DBIL,"[…], time 7 day",0 mg/dL
same,GLC,"[…], time 7 day",187.8 mg/dL
same,IP,"[…], time 7 day",7.4 mg/dL
same,K,"[…], time 7 day",4.1 meq/L
same,LDH,"[…], time 7 day",156.8 IU/L
same,Na,"[…], time 7 day",142.6 meq/L
same,PL,"[…], time 7 day",158 mg/dL
same,RALB,"[…], time 7 day",3.1 g/dL
same,TBIL,"[…], time 7 day",0.028 mg/dL
same,TC,"[…], time 7 day",81.6 mg/dL
same,TG,"[…], time 7 day",101.2 mg/dL
same,TP,"[…], time 7 day",5.7 g/dL
same,gamma-GTP,"[…], time 7 day",1.6 IU/L
same,A/G,"[…], time 14 day",1.2
same,ALP,"[…], time 14 day",1333.2 IU/L
same,ALT,"[…], time 14 day",39.2 IU/L
same,AST,"[…], time 14 day",65.2 IU/L
same,BUN,"[…], time 14 day",18.2 mg/dL
same,CRE,"[…], time 14 day",0.2 mg/dL
same,Ca,"[…], time 14 day",10.8 mg/dL
same,Cl,"[…], time 14 day",107.4 meq/L
same,DBIL,"[…], time 14 day",0 mg/dL
same,GLC,"[…], time 14 day",191.6 mg/dL
same,IP,"[…], time 14 day",6.5 mg/dL
same,K,"[…], time 14 day",4.2 meq/L
same,LDH,"[…], time 14 day",164 IU/L
same,Na,"[…], time 14 day",142 meq/L
same,PL,"[…], time 14 day",153 mg/dL
same,RALB,"[…], time 14 day",3.2 g/dL
same,TBIL,"[…], time 14 day",0.018 mg/dL
same,TC,"[…], time 14 day",75.6 mg/dL
same,TG,"[…], time 14 day",121.4 mg/dL
same,TP,"[…], time 14 day",5.9 g/dL
same,gamma-GTP,"[…], time 14 day",1.8 IU/L
same,A/G,"[…], time 28 day",1.1
same,ALP,"[…], time 28 day",1169.6 IU/L
same,ALT,"[…], time 28 day",38.2 IU/L
same,AST,"[…], time 28 day",67.6 IU/L
same,BUN,"[…], time 28 day",18.8 mg/dL
same,CRE,"[…], time 28 day",0.2 mg/dL
same,Ca,"[…], time 28 day",10.3 mg/dL
same,Cl,"[…], time 28 day",107.6 meq/L
same,DBIL,"[…], time 28 day",0 mg/dL
same,GLC,"[…], time 28 day",190.6 mg/dL
same,IP,"[…], time 28 day",5.9 mg/dL
same,K,"[…], time 28 day",3.9 meq/L
same,LDH,"[…], time 28 day",137 IU/L
same,Na,"[…], time 28 day",142.6 meq/L
same,PL,"[…], time 28 day",140 mg/dL
same,RALB,"[…], time 28 day",3.2 g/dL
same,TBIL,"[…], time 28 day",0.004 mg/dL
same,TC,"[…], time 28 day",71.8 mg/dL
same,TG,"[…], time 28 day",98.6 mg/dL
same,TP,"[…], time 28 day",6 g/dL
same,gamma-GTP,"[…], time 28 day",1 IU/L

# From ChEMBL document CHEMBL3885861, “Open TG-GATES”
